Test results published in US20150225794A1, “METHOD OF PREDICTING A PREDISPOSITION TO QT PROLONGATION” (Vanda Pharmaceuticals, Inc., priority 2009, published 2015).

Tests used:
QT interval [1] = assay: ABCC2 SNP genotypes and QT prolongation following administration of iloperidone; assay type: in vivo, human; conditions: QTcF
Description: (§1) Since the QT interval changes with changes in heart rate, the QT interval is often measured as a corrected QT (QTc) interval. Any number of formulas may be employed to calculate the QTc, including, for example, the Fridericia formula (QTcF), the Bazett formula (QTcB), and the Rautaharju formula (QTp), among others. In the studies described herein, QT was calculated using the Fridericia formula. However, the present invention includes the use of any such formula or method for calculating a QTc or an uncorrected QT.

QT interval [2] = assay: QT prolongation and rs7067971 genotype in individuals given oral iloperidone for two weeks; assay type: in vivo, human; conditions: for High QT, + test (number of individuals) / Low QT, + test (number of individuals): rs7067971 GG; for High QT, + test (number of individuals) / Low QT, + test (number of individuals) / High QT, − test (number of individuals) / Low QT, − test (number of individuals): 24 mg/day B.I.D. oral, two weeks; for High QT, − test (number of individuals) / Low QT, − test (number of individuals): rs7067971 non-GG; for Odds Ratio: rs7067971 GG test
Description: as §1, with “QT. Using the genotypes at the SNP loci above, it is possible, with a high degree of certainty, to predict an individual's predisposition to QT prolongation.” for “QT.”

For COc1cc(C(C)=O)ccc1OCCCN1CCC(c2noc3cc(F)ccc23)CC1 [iloperidone], the “Lowest QTc change (genotype)” value (QT interval [1]; SNP_A-2004488, rs2256678, allele A C, allele B T) was “non-BB”, the “Lowest QTc change (genotype)” value (QT interval [1]; SNP_A-2068049, rs7067971, allele A A, allele B G) was “non-BB” and the “Lowest QTc change (genotype)” value (QT interval [1]; SNP_A-2253129, rs4919395, allele A C, allele B T) was “non-BB”. For the same compound, the “Lowest QTc change (genotype)” value (QT interval [1]; SNP_A-2262953, rs2804398, allele A A, allele B T) was “non-BB”, the “Lowest QTc change (genotype)” value (QT interval [1]; SNP_A-4268713, rs2256700, allele A A, allele B G) was “non-BB” and the “High QT, + test (number of individuals)” value (QT interval [2]; change threshold QT > 5 msec) was 13. For the same compound, the “Low QT, + test (number of individuals)” value (QT interval [2]; change threshold QT > 5 msec) was 0, the “High QT, − test (number of individuals)” value (QT interval [2]; change threshold QT > 5 msec) was 101 and the “Low QT, − test (number of individuals)” value (QT interval [2]; change threshold QT > 5 msec) was 64. For the same compound, the “Odds Ratio” value (QT interval [2]; change threshold QT > 15 msec) was 9.38, the “High QT, + test (number of individuals)” value (QT interval [2]; change threshold QT > 15 msec) was 11 and the “Low QT, + test (number of individuals)” value (QT interval [2]; change threshold QT > 15 msec) was 2. The “High QT, − test (number of individuals)” value (QT interval [2]; change threshold QT > 15 msec) was 61, the “Low QT, − test (number of individuals)” value (QT interval [2]; change threshold QT > 15 msec) was 104 and the “Odds Ratio” value (QT interval [2]; change threshold QT > 30 msec) was 5.88. The “High QT, + test (number of individuals)” value (QT interval [2]; change threshold QT > 30 msec) was 6, the “Low QT, + test (number of individuals)” value (QT interval [2]; change threshold QT > 30 msec) was 7 and the “High QT, − test (number of individuals)” value (QT interval [2]; change threshold QT > 30 msec) was 21. For the same compound, the “Low QT, − test (number of individuals)” value (QT interval [2]; change threshold QT > 30 msec) was 144.
